The values that follow come from PubChem BioAssay (NCI).

Where “and” joins values, the source holds several entries; their conditions need not be identical. Equal values may be shown once.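 96-well plates; 48 h exposure; 5 concentrations. Endpoints by linear interpolation between flanking doses. Not reached: highest tested concentration assigned. At the GI50, growth is halved. TGI marks complete inhibition of growth.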

Some test systems named below: XF 498 CNS; LXFL 529 NSCLC; RXF-631 renal; DMS 273 small cell lung; HCT-15 colon; DLD-1 colon; SNB-78 CNS; BT-549 breast; 786-0 renal; MDA-N; HS 578T breast; NCI/ADR-RES ovarian; P388/ADR leukemia; DMS 114 small cell lung; SN12K1 renal; P388 leukemia.
Holding throughout (assay): NCI tumour cell line growth inhibition, 48 h

With `COc1ccc2c(c1)O[C@H]1c3ccc(O)cc3OC[C@@H]21`, the TGI in the assay with XF 498 CNS is 46.4 µM; with LXFL 529 NSCLC, 80.3 µM; in the assay on RXF-631 renal it was over 100 µM; in the assay on DMS 273 small cell lung, over 100 µM; in the assay with HCT-15 colon it was over 100 µM; in the assay on DLD-1 colon, over 100 µM. The same compound showed a TGI in the assay on SNB-78 CNS of over 100 µM.

Regarding `O=C(O)c1cncc(C(=O)O)c1`, the TGI in the assay with BT-549 breast, in the assay with 786-0 renal, with MDA-N, with HS 578T breast, in the assay with HCT-15 colon and in the assay on NCI/ADR-RES ovarian was over 100 µM each time.

As for `O=c1[nH]cc(N(CCCl)CCCl)c(=O)[nH]1`, the TGI in the assay on P388/ADR leukemia was 70 µM; in the assay on XF 498 CNS, 89.7 µM; in the assay with LXFL 529 NSCLC, 187 µM; in the assay on BT-549 breast it was 158 µM; in the assay on 786-0 renal, 64.8 µM; with DMS 273 small cell lung, 74.4 µM. Also, the TGI was 103 µM in the assay on DMS 114 small cell lung; 153 µM in the assay with MDA-N; 172 µM in the assay on SN12K1 renal; 301 µM in the assay with HS 578T breast; 66.7 µM in the assay on P388 leukemia; 251 µM in the assay with HCT-15 colon. The values for the TGI in the assay on DLD-1 colon, in the assay on SNB-78 CNS and with NCI/ADR-RES ovarian were 366 µM, 369 µM and 160 µM, respectively.

For the compound `COc1cccc(C2C(C(=O)O)=C(CO)Oc3cc4c(cc32)OCO4)c1` (stereo not drawn), the TGI was 91.2 µM in the assay with XF 498 CNS; over 100 µM with LXFL 529 NSCLC; over 100 µM in the assay with DMS 114 small cell lung; over 100 µM in the assay on HCT-15 colon; over 100 µM in the assay on DLD-1 colon; over 100 µM with SNB-78 CNS.

Consider `c1ccc(SC(Sc2ccccc2)c2ccc3c(c2)OCO3)cc1`, for which the TGI in the assay on BT-549 breast, in the assay on 786-0 renal, in the assay on MDA-N, in the assay on HS 578T breast, in the assay on HCT-15 colon and in the assay on NCI/ADR-RES ovarian was over 100 µM throughout.

For `COc1ccc2c[n+](C)c3c4cc(OC)c(OC)cc4ccc3c2c1`, the TGI in the assay on XF 498 CNS is 22.1 µM; with LXFL 529 NSCLC, 12 µM; with BT-549 breast, 10.8 µM; in the assay on RXF-631 renal it was 46.9 µM; with 786-0 renal, 15.5 µM; in the assay with DMS 273 small cell lung it was 12.5 µM. In addition, the TGI in the assay with DMS 114 small cell lung is 4.16 µM; in the assay on HS 578T breast, 16.1 µM; in the assay with HCT-15 colon, over 70.4 µM; with DLD-1 colon, 42.2 µM; in the assay on SNB-78 CNS, 33.5 µM; in the assay on NCI/ADR-RES ovarian, over 100 µM.

Turning to `CCN(CC)CCC(=O)c1ccccc1`, the TGI in the assay on LXFL 529 NSCLC is 32.1 µM; with DMS 273 small cell lung, 33.5 µM; in the assay with DMS 114 small cell lung, 41.8 µM; in the assay on HCT-15 colon, 38.5 µM.

Take `O=C(O)/C=C/c1cnc[nH]1`: the TGI with P388/ADR leukemia, with XF 498 CNS, in the assay on DMS 273 small cell lung, with DMS 114 small cell lung, in the assay with SN12K1 renal and in the assay on P388 leukemia was over 500 µM in each case. The TGI in the assay on HCT-15 colon, in the assay on DLD-1 colon, in the assay on SNB-78 CNS and in the assay with NCI/ADR-RES ovarian was over 500 µM throughout. Moreover, the GI50 in the assay on P388 leukemia was over 500 µM; with HCT-15 colon, 284 µM and > 500 µM; in the assay with SNB-78 CNS, over 500 µM.

As to `CC(=O)[O-].CC(=O)[O-].O=C(N/N=C/c1cc(Cl)cc(Cl)c1[OH2+])c1ccncc1.[Zn+2]`, the TGI in the assay on 786-0 renal and with HCT-15 colon was over 100 µM in each case.

`CC(=O)NC(CCCCNC(=O)OC(C)(C)C)C(=O)O` (stereo not drawn): the TGI with MDA-N, in the assay on HCT-15 colon and in the assay on NCI/ADR-RES ovarian was over 100 µM throughout.

Regarding `CCOC(=O)C1(C(=O)OCC)CSC1`, the TGI in the assay on MDA-N, in the assay on HS 578T breast, with HCT-15 colon and with NCI/ADR-RES ovarian was over 100 µM in each case.
